# Measured values published in patent publication US10710978B2, “STK4 inhibitors for treatment of hematologic malignancies” (Dana-Farber Cancer Institute, Inc., priority 2015, dated 2020).
# Where two headings read alike, the source gives them in different places.
# Columns and labels:
# CaMK1d = CaMK1d (Homo sapiens (Human), UniProt Q8IU85); assay: KiNativ assay; type: binding; conditions: H929 live cell
# Procedure: (§1) Biochemical IC50s of the compounds of the present disclosure against various kinases were measured in a KiNativ assay. Compounds were screened in duplicate at 10 μM in H929 live cell. IC50 was measured via Mass spectroscopy (MS).
# AMPKa1, AMPKa2 = assay: KiNativ assay; type: binding; conditions: H929 live cell
# Procedure: as §1
# NDR2 = NDR2 (Homo sapiens (Human), UniProt Q9Y2H1); assay: KiNativ assay; type: binding; conditions: H929 live cell
# Procedure: as §1
# MST3 = MST3 (Homo sapiens (Human), UniProt Q9Y6E0); assay: KiNativ assay; type: binding; conditions: H929 live cell
# Procedure: as §1
# Erk2 = Erk2 (Homo sapiens (Human), UniProt P28482); assay: KiNativ assay; type: binding; conditions: H929 live cell
# Procedure: as §1
# MAP3K2 = MAP3K2 (Homo sapiens (Human), UniProt Q9Y2U5); assay: KiNativ assay; type: binding; conditions: H929 live cell
# Procedure: as §1
# MAPKAPK2, MAPKAPK3 = assay: KiNativ assay; type: binding; conditions: H929 live cell
# Procedure: as §1
# NEK3 = NEK3 (Homo sapiens (Human), UniProt P51956); assay: KiNativ assay; type: binding; conditions: H929 live cell
# Procedure: as §1
# IRE1 = IRE1 (Homo sapiens (Human), UniProt O75460); assay: KiNativ assay; type: binding; conditions: H929 live cell
# Procedure: as §1
# NEK8 = NEK8 (Homo sapiens (Human), UniProt Q86SG6); assay: KiNativ assay; type: binding; conditions: H929 live cell
# Procedure: as §1
# PIK3CB = PIK3CB (Homo sapiens (Human), UniProt P42338); assay: KiNativ assay; type: binding; conditions: H929 live cell
# Procedure: as §1
# MST1 = MST1 (Homo sapiens (Human), UniProt Q13043); assay: KiNativ assay; type: binding; conditions: H929 live cell
# Procedure: as §1
# CSK = CSK (Homo sapiens (Human), UniProt P41240); assay: KiNativ assay; type: binding; conditions: H929 live cell
# Procedure: as §1
# [1] = system: CaMK2a, CaMK2b, CaMK2d, CaMK2g; assay: KiNativ assay; type: binding; conditions: H929 live cell
# Procedure: as §1
# MAST3 = MAST3 (Homo sapiens (Human), UniProt O60307); assay: KiNativ assay; type: binding; conditions: H929 live cell
# Procedure: as §1
# NEK1 = NEK1 (Homo sapiens (Human), UniProt Q96PY6); assay: KiNativ assay; type: binding; conditions: H929 live cell
# Procedure: as §1
# MAP2K1, MAP2K2 = assay: KiNativ assay; type: binding; conditions: 10 μM, H929 live cell; range class
# Procedure: as §1
# PFTAIRE1 = PFTAIRE1 (Homo sapiens (Human), UniProt O94921); assay: KiNativ assay; type: binding; conditions: H929 live cell
# Procedure: as §1
# AKT1 = AKT1 (Homo sapiens (Human), UniProt P31749); assay: KiNativ assay; type: binding; conditions: H929 live cell
# Procedure: as §1
# STLK6 = STLK6 (Homo sapiens (Human), UniProt Q9C0K7); assay: KiNativ assay; type: binding; conditions: H929 live cell
# Procedure: as §1
# LATS1 = LATS1 (Homo sapiens (Human), UniProt O95835); assay: KiNativ assay; type: binding; conditions: H929 live cell
# Procedure: as §1
# TBK1 = TBK1 (Homo sapiens (Human), UniProt Q9UHD2); assay: KiNativ assay; type: binding; conditions: H929 live cell
# Procedure: as §1
# IKKa = IKKa (Homo sapiens (Human), UniProt O15111); assay: KiNativ assay; type: binding; conditions: H929 live cell
# Procedure: as §1
# ABL, ARG = assay: KiNativ assay; type: binding; conditions: H929 live cell
# Procedure: as §1
# TAO2 = TAO2 (Homo sapiens (Human), UniProt Q9UL54); assay: KiNativ assay; type: binding; conditions: H929 live cell
# Procedure: as §1
# AurA = AurA (Homo sapiens (Human), UniProt O14965); assay: KiNativ assay; type: binding; conditions: H929 live cell
# Procedure: as §1
# LYN = LYN (Homo sapiens (Human), UniProt P07948); assay: KiNativ assay; type: binding; conditions: H929 live cell
# Procedure: as §1
# STK4 (MST1) = STK4 (MST1) (Homo sapiens (Human), UniProt Q13043); assay: Z-lyte biochemical IC50 assay (Invitrogen); conditions: ATP concentration matched the Km
# Summary of the method: (§2)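 FRET-based Z-lyte kinase assays run at Invitrogen, ATP at each kinase's Km; for STK4, 6.25-160 ng enzyme with 2 μM Ser/Thr 07 peptide in HEPES pH 7.5, MgCl2, EGTA, Brij-35, 1 h reaction then development reagent. 10-point 3-fold titration from 10 μM.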
# STK24 (MST3) = STK24 (MST3) (Homo sapiens (Human), UniProt Q9Y6E0); assay: Z-lyte biochemical IC50 assay (Invitrogen); conditions: ATP concentration matched the Km
# Summary of the method: as §2
# [2] = range class, read-out: % inhibition
# Sequence of AurA (O14965 whole entry): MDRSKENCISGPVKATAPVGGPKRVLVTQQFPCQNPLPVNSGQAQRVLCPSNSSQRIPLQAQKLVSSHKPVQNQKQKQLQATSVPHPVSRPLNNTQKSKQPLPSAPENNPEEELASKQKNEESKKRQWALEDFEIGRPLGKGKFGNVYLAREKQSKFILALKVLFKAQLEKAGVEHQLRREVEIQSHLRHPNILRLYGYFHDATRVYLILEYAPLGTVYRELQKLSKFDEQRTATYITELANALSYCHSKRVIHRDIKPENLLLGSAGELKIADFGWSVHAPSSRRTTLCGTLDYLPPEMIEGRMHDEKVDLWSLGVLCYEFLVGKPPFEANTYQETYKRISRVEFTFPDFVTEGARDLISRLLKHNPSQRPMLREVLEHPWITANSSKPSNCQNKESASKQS
# Sequence of MST1 (Q13043 whole entry): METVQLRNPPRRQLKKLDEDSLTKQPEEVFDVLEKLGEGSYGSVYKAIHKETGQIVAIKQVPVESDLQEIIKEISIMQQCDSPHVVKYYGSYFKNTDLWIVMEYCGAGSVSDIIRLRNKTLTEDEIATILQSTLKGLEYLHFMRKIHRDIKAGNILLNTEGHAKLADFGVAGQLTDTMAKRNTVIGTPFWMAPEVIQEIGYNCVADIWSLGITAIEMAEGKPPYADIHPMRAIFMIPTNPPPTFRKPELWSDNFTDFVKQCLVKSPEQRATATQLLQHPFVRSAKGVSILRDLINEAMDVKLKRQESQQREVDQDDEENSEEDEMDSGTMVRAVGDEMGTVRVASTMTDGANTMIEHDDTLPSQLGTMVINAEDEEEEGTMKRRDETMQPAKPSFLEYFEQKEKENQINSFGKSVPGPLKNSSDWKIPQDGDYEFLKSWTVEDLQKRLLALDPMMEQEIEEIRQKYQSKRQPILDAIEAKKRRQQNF
# Sequence of STLK6 (Q9C0K7 whole entry): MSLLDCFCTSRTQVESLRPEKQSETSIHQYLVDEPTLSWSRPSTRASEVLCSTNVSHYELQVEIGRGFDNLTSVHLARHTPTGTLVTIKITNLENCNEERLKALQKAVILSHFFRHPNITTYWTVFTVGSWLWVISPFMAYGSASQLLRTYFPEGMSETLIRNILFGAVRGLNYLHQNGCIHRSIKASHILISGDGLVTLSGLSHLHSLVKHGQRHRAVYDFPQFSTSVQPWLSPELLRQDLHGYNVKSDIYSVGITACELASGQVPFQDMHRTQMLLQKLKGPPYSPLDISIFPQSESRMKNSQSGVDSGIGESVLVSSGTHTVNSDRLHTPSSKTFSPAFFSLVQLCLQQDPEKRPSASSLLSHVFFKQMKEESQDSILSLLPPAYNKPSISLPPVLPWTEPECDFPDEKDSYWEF
# Sequence of MST3 (Q9Y6E0 whole entry): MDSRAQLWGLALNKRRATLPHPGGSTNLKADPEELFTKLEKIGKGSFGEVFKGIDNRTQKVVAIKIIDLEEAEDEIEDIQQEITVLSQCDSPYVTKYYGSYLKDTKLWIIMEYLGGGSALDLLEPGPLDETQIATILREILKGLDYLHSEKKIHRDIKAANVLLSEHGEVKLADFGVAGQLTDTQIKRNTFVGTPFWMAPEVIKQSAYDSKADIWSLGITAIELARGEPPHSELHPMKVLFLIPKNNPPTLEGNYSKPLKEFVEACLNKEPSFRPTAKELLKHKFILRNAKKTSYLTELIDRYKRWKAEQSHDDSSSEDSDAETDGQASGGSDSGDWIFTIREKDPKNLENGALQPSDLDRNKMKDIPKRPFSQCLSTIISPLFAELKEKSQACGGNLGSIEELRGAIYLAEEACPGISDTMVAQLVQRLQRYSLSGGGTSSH
# Sequence of CSK (P41240 whole entry): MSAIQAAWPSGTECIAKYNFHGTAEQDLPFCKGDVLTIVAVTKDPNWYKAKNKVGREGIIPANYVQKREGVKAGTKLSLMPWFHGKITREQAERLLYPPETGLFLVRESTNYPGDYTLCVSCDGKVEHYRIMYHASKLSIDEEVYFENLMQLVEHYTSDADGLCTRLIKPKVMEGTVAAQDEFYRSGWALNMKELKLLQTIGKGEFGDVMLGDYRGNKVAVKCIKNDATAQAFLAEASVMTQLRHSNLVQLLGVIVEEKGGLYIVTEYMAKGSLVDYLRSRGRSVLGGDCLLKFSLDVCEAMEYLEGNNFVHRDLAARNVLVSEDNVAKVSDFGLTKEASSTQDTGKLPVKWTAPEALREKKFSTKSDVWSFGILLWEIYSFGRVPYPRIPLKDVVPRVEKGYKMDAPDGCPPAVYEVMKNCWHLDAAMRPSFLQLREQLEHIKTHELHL
# Sequence of CaMK1d (Q8IU85 whole entry): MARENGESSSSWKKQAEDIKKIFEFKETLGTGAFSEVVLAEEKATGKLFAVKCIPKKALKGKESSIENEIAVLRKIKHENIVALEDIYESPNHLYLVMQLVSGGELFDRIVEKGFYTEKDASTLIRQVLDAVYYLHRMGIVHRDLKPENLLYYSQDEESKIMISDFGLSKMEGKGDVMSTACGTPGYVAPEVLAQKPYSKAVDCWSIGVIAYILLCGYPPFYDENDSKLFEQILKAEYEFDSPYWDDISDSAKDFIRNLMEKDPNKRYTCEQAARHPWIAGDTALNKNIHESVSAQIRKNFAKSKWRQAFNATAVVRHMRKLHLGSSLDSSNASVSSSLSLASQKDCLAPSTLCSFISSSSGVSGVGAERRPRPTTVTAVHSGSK
# Sequence of TBK1 (Q9UHD2 whole entry): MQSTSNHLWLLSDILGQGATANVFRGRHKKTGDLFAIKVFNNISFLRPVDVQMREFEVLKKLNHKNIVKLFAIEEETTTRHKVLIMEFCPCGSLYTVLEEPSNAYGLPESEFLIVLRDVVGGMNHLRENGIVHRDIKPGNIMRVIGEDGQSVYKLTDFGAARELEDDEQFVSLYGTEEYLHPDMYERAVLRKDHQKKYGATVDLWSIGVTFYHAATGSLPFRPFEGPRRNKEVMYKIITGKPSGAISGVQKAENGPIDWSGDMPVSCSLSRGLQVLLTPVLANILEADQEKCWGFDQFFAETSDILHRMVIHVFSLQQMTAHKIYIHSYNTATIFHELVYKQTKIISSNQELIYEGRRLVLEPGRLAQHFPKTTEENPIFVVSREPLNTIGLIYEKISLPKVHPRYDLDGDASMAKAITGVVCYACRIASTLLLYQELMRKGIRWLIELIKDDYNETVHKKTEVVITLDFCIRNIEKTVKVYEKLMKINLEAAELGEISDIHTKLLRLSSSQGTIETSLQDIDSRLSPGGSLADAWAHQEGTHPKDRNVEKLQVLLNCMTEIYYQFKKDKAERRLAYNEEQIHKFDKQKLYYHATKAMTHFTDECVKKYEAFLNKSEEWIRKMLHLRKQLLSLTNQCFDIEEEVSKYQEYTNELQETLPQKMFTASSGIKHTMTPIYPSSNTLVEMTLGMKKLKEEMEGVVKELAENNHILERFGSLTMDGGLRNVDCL
# Sequence of NDR2 (Q9Y2H1 whole entry): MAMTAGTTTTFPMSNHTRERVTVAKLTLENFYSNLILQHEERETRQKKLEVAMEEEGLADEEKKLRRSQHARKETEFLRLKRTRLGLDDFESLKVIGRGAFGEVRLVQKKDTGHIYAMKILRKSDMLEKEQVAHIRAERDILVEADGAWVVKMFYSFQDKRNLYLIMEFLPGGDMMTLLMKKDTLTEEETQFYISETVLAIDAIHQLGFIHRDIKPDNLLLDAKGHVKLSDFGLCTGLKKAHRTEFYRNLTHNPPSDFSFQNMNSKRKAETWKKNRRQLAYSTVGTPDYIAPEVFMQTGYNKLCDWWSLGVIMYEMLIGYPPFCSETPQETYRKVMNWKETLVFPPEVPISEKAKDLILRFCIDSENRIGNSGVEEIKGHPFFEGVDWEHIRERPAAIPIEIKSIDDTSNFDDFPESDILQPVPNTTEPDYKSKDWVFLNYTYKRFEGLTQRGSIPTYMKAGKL
# Sequence of PFTAIRE1 (O94921 whole entry): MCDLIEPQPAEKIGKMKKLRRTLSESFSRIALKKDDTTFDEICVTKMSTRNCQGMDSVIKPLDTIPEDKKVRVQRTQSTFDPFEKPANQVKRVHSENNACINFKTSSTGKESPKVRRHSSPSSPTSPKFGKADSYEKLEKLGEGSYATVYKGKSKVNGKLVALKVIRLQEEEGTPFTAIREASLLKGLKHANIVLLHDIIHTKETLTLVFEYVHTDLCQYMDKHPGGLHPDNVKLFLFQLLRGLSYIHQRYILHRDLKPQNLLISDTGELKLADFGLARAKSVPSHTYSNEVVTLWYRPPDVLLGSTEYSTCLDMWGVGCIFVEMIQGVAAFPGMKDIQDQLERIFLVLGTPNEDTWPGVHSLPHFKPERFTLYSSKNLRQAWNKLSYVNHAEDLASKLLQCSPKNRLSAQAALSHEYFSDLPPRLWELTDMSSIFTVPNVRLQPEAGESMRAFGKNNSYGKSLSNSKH
# Sequence of PFTAIRE1 (Q8ND76 whole entry partner): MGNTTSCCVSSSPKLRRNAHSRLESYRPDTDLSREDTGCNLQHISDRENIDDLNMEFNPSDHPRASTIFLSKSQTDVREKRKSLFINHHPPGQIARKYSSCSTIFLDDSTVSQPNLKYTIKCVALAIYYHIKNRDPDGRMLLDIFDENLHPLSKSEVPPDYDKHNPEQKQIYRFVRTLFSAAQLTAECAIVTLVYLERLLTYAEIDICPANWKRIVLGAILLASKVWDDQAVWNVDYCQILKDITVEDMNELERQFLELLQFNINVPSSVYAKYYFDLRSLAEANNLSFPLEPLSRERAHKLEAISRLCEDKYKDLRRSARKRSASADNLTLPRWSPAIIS
# Sequence of Erk2 (P28482 whole entry): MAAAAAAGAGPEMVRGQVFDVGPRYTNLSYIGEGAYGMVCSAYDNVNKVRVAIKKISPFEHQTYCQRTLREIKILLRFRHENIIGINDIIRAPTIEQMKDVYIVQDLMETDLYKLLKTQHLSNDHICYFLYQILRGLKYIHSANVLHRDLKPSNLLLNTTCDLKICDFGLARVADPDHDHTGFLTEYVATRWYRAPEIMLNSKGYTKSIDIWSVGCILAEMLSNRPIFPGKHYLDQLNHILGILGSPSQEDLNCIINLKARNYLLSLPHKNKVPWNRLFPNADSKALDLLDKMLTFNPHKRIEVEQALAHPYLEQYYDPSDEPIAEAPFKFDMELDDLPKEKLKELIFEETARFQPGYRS
smiles,measurement,setting,value
"COc1cc(NS(=O)(=O)C2CC2)ccc1-c1cnc(N)c(-c2ccc3c(c2)CCNC3=O)c1 [Compound I-50, N-(4-(6-amino-5-(1-oxo-1,2,3,4-tetrahydroisoquinolin-6-yl)pyridin-3-yl)-3-methoxyphenyl) cyclopropanesulfonamide]",inhibition at 10 µM,CaMK1d; [2],0%
same,inhibition at 10 µM,CaMK1d; read-out: inhibition (10 μM),10.6%
same,% inhibition,"AMPKa1, AMPKa2; 10 μM, range class",0.0%
same,inhibition (10 μM),"AMPKa1, AMPKa2",−8.2%
same,inhibition at 10 µM,NDR2; [2],0%
same,inhibition at 10 µM,NDR2; read-out: inhibition (10 μM),4.5%
same,inhibition at 10 µM,MST3; [2],0%
same,inhibition at 10 µM,MST3; read-out: inhibition (10 μM),20%
same,inhibition at 10 µM,Erk2; [2],0%
same,inhibition at 10 µM,Erk2; read-out: inhibition (10 μM),34.5%
same,inhibition at 10 µM,MAP3K2; [2],0%
same,inhibition at 10 µM,MAP3K2; read-out: inhibition (10 μM),-39.1%
same,% inhibition,"MAPKAPK2, MAPKAPK3; 10 μM, range class",0.0%
same,inhibition (10 μM),"MAPKAPK2, MAPKAPK3",−34.3%
same,inhibition at 10 µM,NEK3; [2],0%
same,inhibition at 10 µM,NEK3; read-out: inhibition (10 μM),-9.9%
same,inhibition at 10 µM,IRE1; [2],0%
same,inhibition at 10 µM,IRE1; read-out: inhibition (10 μM),-8.7%
same,inhibition at 10 µM,NEK8; [2],0%
same,inhibition at 10 µM,NEK8; read-out: inhibition (10 μM),-8.1%
same,inhibition at 10 µM,PIK3CB; [2],0%
same,inhibition at 10 µM,PIK3CB; read-out: inhibition (10 μM),27.7%
same,inhibition at 10 µM,MST1; [2],> 90%
same,inhibition at 10 µM,MST1; read-out: inhibition (10 μM),97.5%
same,inhibition at 10 µM,CSK; [2],0%
same,inhibition at 10 µM,CSK; read-out: inhibition (10 μM),-4.3%
same,% inhibition,"[1]; 10 μM, range class",0.0%
same,inhibition (10 μM),[1],26.8%
same,inhibition at 10 µM,MAST3; [2],0%
same,inhibition at 10 µM,MAST3; read-out: inhibition (10 μM),-0.5%
same,inhibition at 10 µM,NEK1; [2],0%
same,inhibition at 10 µM,NEK1; read-out: inhibition (10 μM),16.8%
same,% inhibition,"MAP2K1, MAP2K2",0.0%
same,inhibition at 10 µM,PFTAIRE1; [2],0%
same,inhibition at 10 µM,PFTAIRE1; read-out: inhibition (10 μM),-2.4%
same,inhibition at 10 µM,AKT1; [2],0%
same,inhibition at 10 µM,AKT1; read-out: inhibition (10 μM),2.1%
same,inhibition at 10 µM,STLK6; [2],0%
same,inhibition at 10 µM,STLK6; read-out: inhibition (10 μM),-15%
same,inhibition at 10 µM,LATS1; [2],0%
same,inhibition at 10 µM,LATS1; read-out: inhibition (10 μM),2.9%
same,inhibition at 10 µM,TBK1; [2],0%
same,inhibition at 10 µM,TBK1; read-out: inhibition (10 μM),31.4%
same,inhibition at 10 µM,IKKa; [2],0%
same,inhibition at 10 µM,IKKa; read-out: inhibition (10 μM),-1.9%
same,% inhibition,"ABL, ARG; 10 μM, range class",0.0%
same,inhibition (10 μM),"ABL, ARG",−53.7%
same,inhibition at 10 µM,TAO2; [2],0%
same,inhibition at 10 µM,TAO2; read-out: inhibition (10 μM),9%
same,inhibition (10 μM),AurA,11.9%
same,inhibition at 10 µM,AurA; [2],0%
same,inhibition at 10 µM,AurA; read-out: inhibition (10 μM),18%
same,inhibition at 10 µM,LYN; [2],0%
same,inhibition at 10 µM,LYN; read-out: inhibition (10 μM),9.7%
same,IC50,STK4 (MST1),< 40 nM
same,IC50,STK24 (MST3),200 to 900 nM
